Experimental data: patent US7544707B2, “Bicyclic derivatives as PPAR modulators” (Eli Lilly and Company, priority 2003, dated 2009)

| SMILES | melting point [°C] |
| --- | --- |
| Cc1cc(SCc2cccc3nn(-c4ccc(C(F)(F)F)cc4)cc23)ccc1OCC(=O)O [Example 26, 2-Methyl-4-[2-(4-trifluoromethylphenyl)-2H-indazol-4-ylmethylsulfanyl]phenoxyacetic Acid] | 105 to 108 |
| CC(C)(Oc1ccc(SCc2ccc3nn(-c4ccc(C(F)(F)F)cc4)cc3c2)cc1)C(=O)O [Example 63, 2-Methyl-2-{4-[2-(4-trifluoromethylphenyl)-2H-indazol-5-ylmethylsulfanyl]phenoxy}propionic Acid] | 159 to 161 |
| Cc1cc(SCc2ccc3cn(-c4ccc(C(F)(F)F)cc4)nc3c2)ccc1OCC(=O)O [Example 19, 2-Methyl-4-[2-(4-trifluoromethylphenyl)-2H-indazol-6-ylmethylsulfanyl]phenoxyacetic Acid] | 142 to 144 |
| Cc1cc(SCc2ccc3nn(-c4ccc(C(F)(F)F)cc4)cc3c2)ccc1OC(C)(C)C(=O)O [Example 64, 2-Methyl-2-{2-methyl-4-[2-(4-trifluoromethylphenyl)-2H-indazol-5-ylmethylsulfanyl]phenoxy}propionic Acid] | 143 to 145 |
| CC(Oc1ccc(OC(C)(C)C(=O)O)cc1)c1ccc2cn(-c3ccc(C(F)(F)F)cc3)nc2c1 (racemic) [Example 58, (+/−)-2-Methyl-2-(4-{1-[2-(4-trifluoromethylphenyl)-2H-indazol-6-yl]ethoxy}phenoxy)propionic Acid] | 144 to 146 |
| Cc1cc(SCc2cccc3c2cnn3-c2ccc(C(F)(F)F)cc2)ccc1CCC(=O)O [Example 32, 3-{2-Methyl-4-[1-(4-trifluoromethylphenyl)-1H-indazol-4-ylmethylsulfanyl]phenyl}propionic Acid] | 113 to 115 |
| CC(Oc1ccc(OC(C)(C)C(=O)O)cc1)c1cccc2cn(-c3ccc(C(F)(F)F)cc3)nc12 (racemic) [Example 44, (+/−)-2-Methyl-2-(4-{1-[2-(4-trifluoromethylphenyl)-2H-indazol-7-yl]ethoxy}phenoxy)propionic Acid] | 130 to 132 |
| Cc1cc(SC(C)(C)c2cccc3cn(-c4ccc(C(F)(F)F)cc4)nc23)ccc1CCC(=O)O [Example 15, 3-(2-Methyl-4-{1-methyl-1-[2-(4-trifluoromethylphenyl)-2H-indazol-7-yl]ethylsulfanyl}phenyl)propionic Acid] | 68 to 70 |
| CC(Sc1ccc(OC(C)(C)C(=O)O)cc1)c1cccc2cn(-c3ccc(C(F)(F)F)cc3)nc12 (racemic) [Example 42, (+/−)-2-Methyl-2-(4-{1-[2-(4-trifluoromethylphenyl)-2H-indazol-7-yl]ethylsulfanyl}phenoxy)propionic Acid] | 150 to 152 |
| Cc1cc(OCCc2cccc3cn(-c4ccc(C(F)(F)F)cc4)nc23)ccc1OC(C)(C)C(=O)O [Example 48, 2-Methyl-2-(2-methyl-4-{2-[2-(4-trifluoromethylphenyl)-2H-indazol-7-yl]ethoxy}phenoxy)propionic Acid] | 133 to 135 |
| CC(C)(Oc1ccc(COCc2ccc3cn(-c4ccc(C(F)(F)F)cc4)nc3c2)cc1)C(=O)O [Example 56, 2-Methyl-2-{4-[2-(4-trifluoromethylphenyl)-2H-indazol-6-ylmethoxymethyl]phenoxy}propionic Acid] | 129 to 131 |
| Cc1cc(OCc2ccc3cn(-c4ccc(C(F)(F)F)cc4)nc3c2)ccc1CCC(=O)O [Example 24, 3-{2-Methyl-4-[2-(4-trifluoromethylphenyl)-2H-indazol-6-ylmethoxy]phenyl}propionic Acid] | 181 to 183 |
| Cc1cc(SC(C)c2ccc3cn(-c4ccc(C(F)(F)F)cc4)nc3c2)ccc1OC(C)(C)C(=O)O (racemic) [Example 60, (+/−)-2-Methyl-2-(2-methyl-4-{1-[2-(4-trifluoromethylphenyl)-2H-indazol-6-yl]ethylsulfanyl}phenoxy)propionic Acid] | 114 to 116 |
| O=C(O)Cc1cccc(SCc2cccc3cn(-c4ccc(C(F)(F)F)cc4)nc23)c1 [Example 4, 3-[2-(4-Trifluoromethylphenyl)-2H-indazol-7-ylmethylsulfanyl]phenylacetic Acid] | 147 to 149 |
| Cc1cc(SCc2cccc3nn(-c4ccc(C(F)(F)F)cc4)cc23)ccc1CCC(=O)O [Example 28, 3-{2-Methyl-4-[2-(4-trifluoromethylphenyl)-2H-indazol-4-ylmethylsulfanyl]phenyl}propionic Acid] | 55 to 59 |
| Cc1cc(SCc2cccc3cnn(-c4ccc(C(F)(F)F)cc4)c23)ccc1OCC(=O)O [Example 34, 2-Methyl-4-[1-(4-trifluoromethylphenyl)-1H-indazol-7-ylmethylsulfanyl]phenoxyacetic Acid] | 118 to 121 |
| O=C(O)Cc1csc2cc(SCc3ccc4cn(-c5ccc(C(F)(F)F)cc5)nc4c3)ccc12 [Example 23, 6-[2-(4-Trifluoromethylphenyl)-2H-indazol-6-ylmethylsulfanyl]benzo[b]thiophen-3ylacetic Acid] | 194 to 196 |
| Cc1cc(OC(CCC(F)(F)F)c2cccc3c2cnn3-c2ccc(C(F)(F)F)cc2)ccc1OC(C)(C)C(=O)O (racemic) [Example 87, (+/−)-2-Methyl-2-(2-methyl-4-{4,4,4-trifluoro-1-[1-(4-trifluoromethylphenyl)-1H-indazol-4-yl]butoxy}phenoxy)propionic Acid] | 218 to 222 |
| CCc1cc(SC(C)(C)c2cccc3cn(-c4ccc(C(F)(F)F)cc4)nc23)ccc1OCC(=O)O [Example 16, 2-Ethyl-4-{1-methyl-1-[2-(4-trifluoromethylphenyl)-2H-indazol-7-yl]ethylsulfanyl}phenoxyacetic Acid] | 114 to 116 |
| CC(C)(Oc1ccc(SCc2cccc3cn(-c4ccc(C(F)(F)F)cc4)nc23)cc1)C(=O)O [Example 36, 2-Methyl-2-{4-[2-(4-trifluoromethylphenyl)-2H-indazol-7-ylmethylsulfanyl]phenoxy}propionic Acid] | 140 to 142 |
| CC(C)(Sc1ccc2c(CC(=O)O)csc2c1)c1cccc2cn(-c3ccc(C(F)(F)F)cc3)nc12 [Example 17, 6-{1-Methyl-1-[2-(4-trifluoromethylphenyl)-2H-indazol-7-yl]ethylsulfanyl}benzo[b]thiophen-3-ylacetic Acid] | 120 to 122 |

Second part, the molecule after the results:

| melting point [°C] | SMILES |
| --- | --- |
| 146 to 149 | CC(C)(Oc1ccc(OCc2cccc3cnn(-c4ccc(C(F)(F)F)cc4)c23)cc1)C(=O)O [Example 100, 2-Methyl-1-2-{4-[1-(4-trifluoromethylphenyl)-1H-indazol-7-ylmethoxy]phenoxy}propionic Acid] |
| 140 to 145 | Cc1cc(OC(c2ccccc2)c2cccc3c2cnn3-c2ccc(C(F)(F)F)cc2)ccc1OC(C)(C)C(=O)O (racemic) [Example 91, (+/−)-2-Methyl-2-(2-methyl-4-{phenyl-[1-(4-trifluoromethylphenyl)-1H-indazol-4-yl]methoxy}phenoxy)propionic Acid] |
| 152 to 154 | CC(Oc1ccc(OC(C)(C)C(=O)O)cc1)c1ccc2nn(-c3ccc(C(F)(F)F)cc3)cc2c1 (racemic) [Example 70, (+/−)-2-Methyl-2-(4-{1-[2-(4-trifluoromethylphenyl)-2H-indazol-5-yl]ethoxy}phenoxy)propionic Acid] |
| 85 to 90 | CC(Sc1ccc(OC(C)(C)C(=O)O)cc1)c1cccc2c1cnn2-c1ccc(C(F)(F)F)cc1 (racemic) [Example 86, (+/−)-2-Methyl-2-(4-{1-[1-(4-trifluoromethylphenyl)-1H-indazol-4-yl]ethylsulfanyl}phenoxy)propionic Acid] |
| 62 to 66 | Cc1cc(SCc2cccc3c2cnn3-c2ccc(C(F)(F)F)cc2)ccc1OC(C)(C)C(=O)O [Example 78, 2-Methyl-2-{2-methyl-4-[1-(4-trifluoromethylphenyl)-1H-indazol-4-ylmethylsufanyl]phenoxy}propionic Acid] |
| 168 to 170 | CC(C)(Sc1ccc(OCc2cccc3c2cnn3-c2ccc(C(F)(F)F)cc2)cc1)C(=O)O [Example 80, 2-Methyl-2-{4-[1-(4-trifluoromethylphenyl)-1H-indazol-4-ylmethoxy]phenylsulfanyl}propionic Acid] |
| 125 to 128 | CC(C)(Oc1ccc(SCc2cccc3cnn(-c4ccc(C(F)(F)F)cc4)c23)cc1)C(=O)O [Example 99, 2-Methyl-2-{4-[1-(4-trifluoromethylphenyl)-1H-indazol-7-ylmethylsulfanyl]phenoxy}propionic Acid] |
| 85 to 87 | Cc1cc(SC(C)c2cccc3c2cnn3-c2ccc(C(F)(F)F)cc2)ccc1OC(C)(C)C(=O)O (racemic) [Example 83, (+/−)-2-Methyl-2-(2-methyl-4-{1-[1-(4-trifluoromethylphenyl)-1H-indazol-4-yl]ethylsulfanyl}phenoxy)propionic Acid] |
| 158 to 160 | CC(C)(Oc1ccc(SCc2cccc3c2cnn3-c2ccc(C(F)(F)F)cc2)cc1)C(=O)O [Example 79, 2-Methyl-2-{4-[1-(4-trifluoromethylphenyl)-1H-indazol-4-ylmethylsulfanyl]phenoxy}propionic Acid] |
| 138 to 140 | CC(Oc1ccc(SC(C)(C)C(=O)O)cc1)c1cccc2nn(-c3ccc(C(F)(F)F)cc3)cc12 (racemic) [Example 76, (+/−)-2-Methyl-2-(4-{1-[2-(4-trifluoromethyl-phenyl)-2H-indazol-4-yl]ethoxy}phenylsulfanyl)propionic Acid] |
| 128 to 130 | CC(C)(Oc1ccc(OCc2cccc3c2cnn3-c2ccc(C(F)(F)F)cc2)cc1)C(=O)O [Example 81, 2-Methyl-2-{4-[1-(4-trifluoromethylphenyl)-1H-indazol-4-ylmethoxy]phenoxy}propionic Acid] |
| 203 to 205 | CC(C)(Oc1ccc(OCc2ccc3nn(-c4ccc(C(F)(F)F)cc4)cc3c2)cc1)C(=O)O [Example 65, 2-Methyl-2-{4-[2-(4-trifluoromethylphenyl)-2H-indazol-5-ylmethoxy]phenoxy}propionic Acid] |
| 130 to 132 | Cc1cc(OC(C)c2cccc3nn(-c4ccc(C(F)(F)F)cc4)cc23)ccc1OC(C)(C)C(=O)O (racemic) [Example 74, (+/−)-2-Methyl-2-(2-methyl-4-{1-[2-(4-trifluoromethylphenyl)-2H-indazol-4-yl]ethoxy}phenoxy)propionic Acid] |
